Like-named read-outs stand apart in the source and are kept apart here.
Tests used:
[1] = tested on: RPChiPS771-derived enterocyte-like cells; assay: Real-time PCR of marker genes in hiPSC-derived enterocyte-like cells with or without VD3; type: cell-based, human
Source text: We then used M3-2 for maturation and evaluated the time-dependent expression of marker genes (Figure 4D). […] The expression levels of UDP glucuronosyltransferase 1-1 (UGT1A1) and various isoforms of P450 metabolizing enzymes (CYP2B6, CYP3A4, and CYP3A7) increased in the presence of VD3 compared with the controls without VD3. The expression levels of uptake transporter, SLC15A1, and efflux transporters, ABCB1 and ABCG2, were not affected by VD3.
Cells were fixed in 4% paraformaldehyde (Nacalai Tesque) in PBS, permeabilized with 0.1% Triton X-100 (Nacalai Tesque). The following antibodies were used: anti-CDX2 (1:100, BioGenex, San Ramon, CA, MU392A-UC), anti-VILLIN (1:100, BD Transduction Laboratories, San Diego, 610359), Alexa 568-conjugated, and Alexa 488-conjugated antibodies (1:1000, ThermoFisher).
RNA was extracted from iPS cells using the RNeasy micro-kit or QIAzol (Qiagen, Hilden, Germany) and then treated with DNase (Qiagen). For reverse transcription reactions, 2.5 µg RNA was reverse-transcribed using PrimeScript™ RT Master Mix (Takara Bio). For real-time PCR analysis, the mRNA expression was quantified with either TaqMan Primers and Probe or using SYBR Green on a StepOne Plus (Applied Biosystems, Foster City, CA, USA). β-ACTIN and GAPDH were used as internal controls. Target mRNA levels were expressed as fold-change against human adult small intestine (ASI; ASI=1). Primer details are listed in Supplemental Table S2.
Membrane integrities of human iPSCs derived intestine cells and Caco-2 cells cultured on CVM were measured after the medium change, using a Millicell ERS-2 (Epithelial Volt-Ohm Meter, Millipore).
Transcellular transport assays and measurement of CYP3A metabolite
In Figure 2 and Figure S1, for assessing the transporter activity of P-gp, time-dependent directional (B-to-

[2] = Permeability test (Papp) across hiPSC-derived enterocyte-like cell monolayer; type: in vitro ADME; settings: human, M3-2 medium, 37°C 2 h, n = 4
Description: The unlabeled compounds were analyzed by LC-MS/MS. […]
Permeability measurements
5 was determined as follows: the culture medium for hiPS-derived enterocyte-like cells was replaced with […]
started by replacing the FBS-containing HBSS buffer with substrate +/- inhibitor and incubated at 37°C for 2 h. The unlabeled compounds were analyzed by LC-MS/MS. The LC-MS/MS system consisted of a Waters ACQUITY UPLC (Waters Corporation, Milford, MA, USA) and a Waters Quattro Ultima mass spectrometer (Waters Corporation). The multiple reaction monitoring modes were used to monitor ions.
The detailed conditions for the analyses of the compounds are shown in Supplemental Table S1. The apparent membrane permeability coefficient (Papp) was calculated as follows. Papp ൌ ௗொௗ௧ ൈ ଵ஺஼బ Where dQ/dt is the amount of the compound permeated per unit of time, A is the surface area of insert membrane (0.33 cm2), and C0 is the initial compound concentration in the donor chamber. Differentiated cells showing TEER >30 Ω・cm2 were used. […]
100ൈቀ1െexp൫െα ൈP௔௣௣ ൯ቁ. Where α is the scaling factor. The fitting curve was calculated by nonlinear regression using Phoenix WinNonlin (Ver. 8.1, Certara, L.P.).

[3] = fraction of oral dose absorbed in humans; ref Amidon et al., 1988; Sjöberg et al., 2013; Skolnik et al., 2010; Sugano et al., 2002; Takenaka et al., 2016; Tavelin et al., 2003; Xiao et al., 2019; cited from earlier work
[4] = target: T1, P-gp (Homo sapiens, UniProt P08183); settings: digoxin 1.27 nM, absence of inhibitor
T1 sequence (P08183 whole entry): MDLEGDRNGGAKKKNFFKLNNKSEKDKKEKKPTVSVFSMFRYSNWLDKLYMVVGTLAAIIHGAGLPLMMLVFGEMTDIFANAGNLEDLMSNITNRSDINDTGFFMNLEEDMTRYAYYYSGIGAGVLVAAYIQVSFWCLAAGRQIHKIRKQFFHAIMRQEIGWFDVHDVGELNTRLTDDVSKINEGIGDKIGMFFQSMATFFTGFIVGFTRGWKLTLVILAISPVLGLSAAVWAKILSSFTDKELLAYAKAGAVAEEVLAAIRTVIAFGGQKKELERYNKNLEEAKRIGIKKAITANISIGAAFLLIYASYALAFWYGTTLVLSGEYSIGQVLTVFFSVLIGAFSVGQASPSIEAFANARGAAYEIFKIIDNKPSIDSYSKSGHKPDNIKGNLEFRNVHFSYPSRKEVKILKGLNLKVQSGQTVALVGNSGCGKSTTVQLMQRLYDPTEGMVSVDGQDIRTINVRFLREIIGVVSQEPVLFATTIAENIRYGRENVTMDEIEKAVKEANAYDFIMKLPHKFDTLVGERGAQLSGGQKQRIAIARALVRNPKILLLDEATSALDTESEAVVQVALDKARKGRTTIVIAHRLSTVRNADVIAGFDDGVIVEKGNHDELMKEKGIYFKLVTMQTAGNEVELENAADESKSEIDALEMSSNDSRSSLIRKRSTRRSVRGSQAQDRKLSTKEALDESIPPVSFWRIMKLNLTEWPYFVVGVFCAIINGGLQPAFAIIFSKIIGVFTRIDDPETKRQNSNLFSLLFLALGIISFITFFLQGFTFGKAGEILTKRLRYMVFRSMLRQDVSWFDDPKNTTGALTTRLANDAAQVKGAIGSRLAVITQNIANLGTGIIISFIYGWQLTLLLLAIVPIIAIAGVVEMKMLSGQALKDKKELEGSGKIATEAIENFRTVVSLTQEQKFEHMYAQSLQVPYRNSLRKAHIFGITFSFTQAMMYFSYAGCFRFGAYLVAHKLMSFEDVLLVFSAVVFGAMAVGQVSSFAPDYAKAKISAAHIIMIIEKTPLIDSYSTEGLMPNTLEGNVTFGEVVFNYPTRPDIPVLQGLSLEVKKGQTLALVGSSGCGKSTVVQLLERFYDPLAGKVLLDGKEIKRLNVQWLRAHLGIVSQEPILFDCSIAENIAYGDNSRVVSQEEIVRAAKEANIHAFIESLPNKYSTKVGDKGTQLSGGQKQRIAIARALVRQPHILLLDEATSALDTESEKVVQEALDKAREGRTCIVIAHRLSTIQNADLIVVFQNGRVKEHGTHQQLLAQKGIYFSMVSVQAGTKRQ

[5] = tested on: CYP3A4; settings: in vitro; ref Andrew Williams et al., 2002; cited from earlier work
[6] = tested on: Caco-2 cells; parameters: method as in Artursson, 1990; settings: ref Artursson, 1990; cited from earlier work
[7] = tested on: T2, P-gp; assay: Rhodamine 123 permeability assay by fluorescence detection; type: in vitro ADME, human; settings: human, not told, day 25, M3-2 with VD3 for the last 48 h (condition #8), read-out: rhodamine 123 flux ratio ([B-to-A transport]/[A-to-B transport])
T2 construct: transport activities of efflux transporters, P-gp and BCRP, in the ChiPS18-derived enterocyte-like cells; endogenous in cells; host or cells: ChiPS18 human iPSC-derived enterocyte-like cells on CVM inserts
Source text: (§1) Flux ratio = Papp, basolateral to apical/Papp, apical to basolateral

[8] = target: T1, P-gp; assay: as above; type: in vitro ADME; parameters: transport activities of efflux transporters, P-gp and BCRP, in the ChiPS18-derived enterocyte-like cells; endogenous in cells; host or cells: ChiPS18 human iPSC-derived enterocyte-like cells on CVM inserts; settings: 10 μM, day 25, absence of Dex (condition #6, 7) or without Dex and DMSO (condition #5)
Source text: as §1

[9] = D30 of differentiation, read-out: RPChiPS771 d30 Papp Mean ± SD
[10] = day 23 of differentiation, read-out: RPChiPS771 d23 Papp Mean ± SD

| SMILES | Papp at 2 h [2, 9] [×10⁻⁶ cm/s] | Papp at 2 h [2, 10] [×10⁻⁶ cm/s] | Human Fa [3] [%] | also measured |
| --- | --- | --- | --- | --- |
| C=C1/C(=C\C=C2/CCC[C@]3(C)[C@@H]([C@H](C)CCCC(C)(C)O)CC[C@@H]23)C[C@@H](O)C[C@@H]1O [VD3, 1α,25-dihydroxyvitamin D3] | – | – | – | expression level of ALPI ([1]; presence of VD3, M3-2): upregulated; expression levels of UGT1A1, CYP2B6, CYP3A4 and CYP3A7 ([1]; presence of VD3 compared with controls without VD3, M3-2): increased; expression levels of SLC15A1, ABCB1 and ABCG2 ([1]; presence of VD3 vs without, M3-2): not affected |
| Nc1nc2c(ncn2COCCO)c(=O)[nH]1 [acyclovir] | 10 ± 6.34 | 3.62 ± 0.73 | – | – |
| Cc1cc(=O)n(-c2ccccc2)n1C [antipyrine] | 41.9 ± 2.2 | 48.4 ± 1.7 | 97 | – |
| O=C(O)Cc1ccccc1Nc1c(Cl)cccc1Cl [diclofenac] | 12 ± 1.2 | 17.4 ± 0.6 | – | – |
| C[C@H]1O[C@@H](O[C@H]2[C@@H](O)C[C@H](O[C@H]3[C@@H](O)C[C@H](O[C@H]4CC[C@@]5(C)[C@H](CC[C@@H]6[C@@H]5C[C@@H](O)[C@]5(C)[C@@H](C7=CC(=O)OC7)CC[C@]65O)C4)O[C@@H]3C)O[C@@H]2C)C[C@H](O)[C@@H]1O [digoxin] | 5.18 ± 0.7 | 6.15 ± 0.94 | – | directional transport (B-to-A vs A-to-B) [4]: Basal-to-apical (B-to-A) transport exceeded apical-to-basal (A-to-B) transport |
| NC(N)=Nc1nc(CSCCC(N)=NS(N)(=O)=O)cs1 [famotidine] | 7.42 ± 3.36 | 5.05 ± 1.76 | 38 | – |
| NS(=O)(=O)c1cc2c(cc1Cl)NCNS2(=O)=O [hydrochlorothiazide] | 9.5 ± 4.92 | 2.1 ± 1.12 | – | – |
| COCCc1ccc(OCC(O)CNC(C)C)cc1 (centres unmarked) [metoprolol] | 25.1 ± 4.8 | 22.6 ± 1.3 | – | – |
| Cc1ncc2n1-c1ccc(Cl)cc1C(c1ccccc1F)=NC2 [midazolam] | – | – | – | formation of 1′-OH midazolam by CYP3A4 compared to CYP3A7 [5]: > 600 fold |
| CC(C)(C)NCC(O)COc1cccc2c1CC(O)C(O)C2 (centres unmarked) [nadolol] | 8.96 ± 9.29 | 2.83 ± 1.5 | 33 | – |
| CC(C)NCC(O)COc1cccc2ccccc12 (centres unmarked) [propranolol] | 29.3 ± 2.5 | 26 ± 2.7 | – | passive permeability [6]: 41.9 ×10⁻⁶ cm/s |
| CNC(=C[N+](=O)[O-])NCCSCc1ccc(CN(C)C)o1 [ranitidine] | 8.3 ± 6.06 | 3.94 ± 0.7 | 50 | – |
| COC(=O)c1ccccc1-c1c2ccc(=N)cc-2oc2cc(N)ccc12 [rhodamine 123] | – | – | – | efflux ratio at 10 μM [7]: < 2; rhodamine 123 flux ratio ([B-to-A transport]/[A-to-B transport]) [8]: low |
| O=C(O)c1cc(/N=N/c2ccc(S(=O)(=O)Nc3ccccn3)cc2)ccc1O [sulfasalazine] | 2.65 ± 1.01 | 1.02 ± 0.4 | 13 | – |
| CCN1CCCC1CNC(=O)c1cc(S(N)(=O)=O)ccc1OC (centres unmarked) [sulpiride] | 8.39 ± 4.96 | 3.15 ± 1.18 | – | – |
| C[C@]12CC[C@H]3[C@@H](CCC4=CC(=O)CC[C@@]43C)[C@@H]1CC[C@@H]2O [testosterone] | – | – | 100 | – |

— publication PMC7878837, “Generation of Human-Induced Pluripotent Stem Cell-Derived Functional Enterocyte-Like Cells for Pharmacokinetic Studies” (Stem Cell Reports, 2021)
